Where two headings read alike, the source gives them in different places.
Tests used:
[1] = Pharmacokinetic study, intravenous 5 mg/kg; assay type: in vivo; conditions: CD1 mice
Protocol: Pharmacokinetic studies of the compound of Example 1 (i.e. CC-006) and previously disclosed compounds EPZ004777, CC001 (see U.S. 2014/0051654) and FED1 were performed in CD1 mice following intravenous administration, as detailed in Table 1.
Mean plasma concentration-time profiles representative of the compound of Example 1 (i.e. CC-006) after intravenous dosing (5 mg kg^−1) are shown in FIG. 8A (data represent the mean and s.d. (n=3)). […] From the pharmacokinetic properties, the compound of Example 1 (i.e. CC-006) has potential for use in treatment using intravenous administration due to its long half-life, as compared to subcutaneous administration.

[2] = target: His6-DOT1L (Homo sapiens, UniProt Q8TEK3); test: ALPHA assay (AlphaScreen) of probe displacement from DOT1L; assay type: binding; conditions: FIG. 9
His6-DOT1L, sequence (Q8TEK3 whole entry): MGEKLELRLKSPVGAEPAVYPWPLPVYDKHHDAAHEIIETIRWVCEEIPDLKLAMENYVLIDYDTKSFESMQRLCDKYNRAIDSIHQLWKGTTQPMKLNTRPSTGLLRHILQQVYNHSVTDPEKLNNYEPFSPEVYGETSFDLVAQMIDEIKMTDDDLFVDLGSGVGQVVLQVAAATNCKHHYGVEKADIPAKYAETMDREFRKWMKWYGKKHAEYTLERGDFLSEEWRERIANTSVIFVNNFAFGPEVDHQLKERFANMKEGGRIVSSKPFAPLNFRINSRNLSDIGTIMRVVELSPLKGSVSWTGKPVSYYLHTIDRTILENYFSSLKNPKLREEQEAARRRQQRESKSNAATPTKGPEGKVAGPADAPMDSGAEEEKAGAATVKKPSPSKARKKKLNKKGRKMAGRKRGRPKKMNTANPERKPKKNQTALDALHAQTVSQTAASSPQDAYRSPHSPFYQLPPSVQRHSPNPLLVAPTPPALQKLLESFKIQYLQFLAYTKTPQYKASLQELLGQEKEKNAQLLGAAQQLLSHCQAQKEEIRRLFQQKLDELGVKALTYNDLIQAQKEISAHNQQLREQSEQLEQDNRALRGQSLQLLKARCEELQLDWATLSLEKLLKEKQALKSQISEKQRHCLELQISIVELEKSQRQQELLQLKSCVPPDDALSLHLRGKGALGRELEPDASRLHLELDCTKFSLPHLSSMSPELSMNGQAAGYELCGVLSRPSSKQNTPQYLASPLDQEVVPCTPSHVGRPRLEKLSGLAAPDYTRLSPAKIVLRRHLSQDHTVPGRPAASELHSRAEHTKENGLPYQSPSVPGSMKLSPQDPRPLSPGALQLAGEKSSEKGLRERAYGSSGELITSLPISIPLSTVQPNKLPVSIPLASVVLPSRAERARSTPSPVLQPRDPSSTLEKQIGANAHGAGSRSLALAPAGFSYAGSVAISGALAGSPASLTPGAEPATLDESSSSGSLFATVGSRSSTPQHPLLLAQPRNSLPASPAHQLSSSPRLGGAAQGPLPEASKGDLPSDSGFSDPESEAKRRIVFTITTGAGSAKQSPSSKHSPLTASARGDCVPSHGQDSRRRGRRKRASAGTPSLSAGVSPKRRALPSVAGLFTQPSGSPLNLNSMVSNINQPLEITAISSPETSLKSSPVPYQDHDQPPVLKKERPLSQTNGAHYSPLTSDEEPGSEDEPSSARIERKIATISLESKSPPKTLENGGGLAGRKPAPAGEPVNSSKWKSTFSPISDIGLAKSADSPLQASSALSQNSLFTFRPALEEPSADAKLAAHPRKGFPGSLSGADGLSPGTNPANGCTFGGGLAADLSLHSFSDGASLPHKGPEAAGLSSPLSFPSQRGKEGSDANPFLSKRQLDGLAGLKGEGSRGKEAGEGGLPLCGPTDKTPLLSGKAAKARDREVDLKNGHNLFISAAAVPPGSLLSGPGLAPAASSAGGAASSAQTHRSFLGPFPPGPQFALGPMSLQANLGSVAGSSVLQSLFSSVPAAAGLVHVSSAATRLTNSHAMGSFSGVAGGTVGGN
Description: In and ALPHA assay binding of binding partners captured on the beads leads to an energy transfer from one bead to the other, ultimately producing a luminescent signal. Alpha assays require two bead types: donor beads and acceptor beads. Donor beads contain a photosensitizer, phthalocyanine, which converts ambient oxygen to an excited and reactive form of O2, singlet oxygen, upon illumination at 680 nm. Within its 4 μsec half-life, singlet oxygen can diffuse approximately 200 nm in solution. If an Acceptor bead is within that distance, energy is transferred from the singlet oxygen to thioxene derivatives within the Acceptor bead, resulting in light production. If the Donor bead is not in proximity of an Acceptor bead, the singlet oxygen falls to ground state and no signal is produced. […]
Two stock solutions are made at 2× the final concentration in Alpha buffer. […] Finally, 10 μL of solution B is added to the 384 well alpha plate, the plate is spun down and incubated at room temperature and read on a plate reader.
Plates can be read with an Envision plate reader, which comes with a predefined AlphaScreen program that has the correct excitation and emission wavelengths, cutoff filters, delay time, etc. […]
Plates are incubated at room temperature for 20 minutes, then read on plate reader.

[3] = Cellular assays (not specified at the place); assay type: cell-based
Protocol: The compounds of Examples 1-4 and known DOT1L inhibitors were analyzed in a High Content Imaging Assay (HCI).

[4] = Pharmacokinetic study, IP 100 mg/kg, whole blood concentration; assay type: in vivo, male CD1 mice; conditions: for AUC(0-inf) / AUC(0-t) / Cmax / half-life / Tmax / concentration at 0.083 hr / concentration at 0.25 hr / concentration at 0.5 hr / concentration at 1 h / concentration at 2 h / concentration at 4 h / concentration at 8 h / concentration at 24 h: male, CD1, mouse, ip, 100 mg/kg
Protocol: Pharmacokinetic studies in CD1 mice using the compound of Example 1 (i.e. CC-006) (100 mg/kg, IP dose) were also performed.

[5] = tested on: H3K27Me3 mark; test: Western blot assay; assay type: cell-based; conditions: compared to EPZ004777 and CC001, FIG. 5
[6] = read-out: Concentration Mouse#1
[7] = read-out: Concentration Mouse#2
[8] = read-out: Concentration Mouse#3

CC(C)N(C[C@H]1C[C@@H](n2cc(C#N)c3c(N)ncnc32)[C@H](O)[C@@H]1O)C1CC(CCc2nc3ccc(C(C)(C)C)cc3[nH]2)C1 (stereo partly drawn) [Example 1, 4-amino-7-((1R,2S,3R,4R)-4-(((3-(2-(6-(tert-butyl)-1H-benzo[d]imidazol-2-yl)ethyl)cyclobutyl)(isopropyl)amino)methyl)-2,3-dihydroxycyclopentyl)-7H-pyrrolo[2,3-d]pyrimidine-5-carbonitrile]
half-life relative to the half-life of EPZ004777 [1]: approximately 4.3 × | half-life relative to the half-life of FED1 [1]: ~10.5 × | drug exposure (area under the curve (AUC)) ([1]; 5 mg/kg, FIG. 8B): good drug exposure | half-life ([1]; mouse, plasma, 5 mg/kg, FIG. 8B, read-out: half-life (T1/2) (converted)): 12.6 h | binding to DOT1L (ALPHA screen) [2]: binds to DOT1L | cellular activity compared to CC0001 [3]: largely improved cellular activity compared to CC0001 | AUC(0-inf) ([4]; read-out: AUCINF Mean): 86900 ng·h/mL | AUC(0-inf) ([4]; read-out: AUCINF Mouse#1): 58900 ng·h/mL | AUC(0-inf) ([4]; read-out: AUCINF Mouse#2): 72900 ng·h/mL | AUC(0-inf) ([4]; read-out: AUCINF Mouse#3): 129000 ng·h/mL | AUC(0-t) ([4]; read-out: AUClast Mean): 84400 ng·h/mL | AUC(0-t) ([4]; read-out: AUClast Mouse#1): 57100 ng·h/mL | AUC(0-t) ([4]; read-out: AUClast Mouse#2): 70500 ng·h/mL | AUC(0-t) ([4]; read-out: AUClast Mouse#3): 126000 ng·h/mL | Cmax ([4]; read-out: Cmax Mean): 15300 ng/mL | Cmax ([4]; read-out: Cmax Mouse#1): 13100 ng/mL | Cmax ([4]; read-out: Cmax Mouse#2): 15000 ng/mL | Cmax ([4]; read-out: Cmax Mouse#3): 17800 ng/mL | half-life ([4]; read-out: Terminal t1/2 Mean (converted)): 4.65 h | half-life ([4]; read-out: Terminal t1/2 Mouse#1 (converted)): 4.64 h | half-life ([4]; read-out: Terminal t1/2 Mouse#2 (converted)): 4.8 h | half-life ([4]; read-out: Terminal t1/2 Mouse#3 (converted)): 4.51 h | Tmax ([4]; read-out: Tmax Mean): 0.833 h | Tmax ([4]; read-out: Tmax Mouse#1): 1 h | Tmax ([4]; read-out: Tmax Mouse#2): 1 h | Tmax ([4]; read-out: Tmax Mouse#3): 0.5 h | concentration at 0.083 hr ([4]; read-out: Concentration Mean): 5350 ng/mL | concentration at 0.083 hr [4, 6]: 4600 ng/mL | concentration at 0.083 hr [4, 7]: 5940 ng/mL | concentration at 0.083 hr [4, 8]: 5500 ng/mL | concentration at 0.25 hr ([4]; read-out: Concentration Mean): 12700 ng/mL | concentration at 0.25 hr [4, 6]: 12000 ng/mL | concentration at 0.25 hr [4, 7]: 13400 ng/mL | concentration at 0.25 hr [4, 8]: 12800 ng/mL | concentration at 0.5 hr ([4]; read-out: Concentration Mean): 14300 ng/mL | concentration at 0.5 hr [4, 6]: 11100 ng/mL | concentration at 0.5 hr [4, 7]: 14100 ng/mL | concentration at 0.5 hr [4, 8]: 17800 ng/mL | concentration at 1 h ([4]; read-out: Concentration Mean): 15200 ng/mL | concentration at 1 h [4, 6]: 13100 ng/mL | concentration at 1 h [4, 7]: 15000 ng/mL | concentration at 1 h [4, 8]: 17500 ng/mL | concentration at 2 h ([4]; read-out: Concentration Mean): 12600 ng/mL | concentration at 2 h [4, 6]: 10500 ng/mL | concentration at 2 h [4, 7]: 11300 ng/mL | concentration at 2 h [4, 8]: 16100 ng/mL | concentration at 4 h ([4]; read-out: Concentration Mean): 7450 ng/mL | concentration at 4 h [4, 6]: 4210 ng/mL | concentration at 4 h [4, 7]: 5380 ng/mL | concentration at 4 h [4, 8]: 12800 ng/mL | concentration at 8 h ([4]; read-out: Concentration Mean): 2000 ng/mL | concentration at 8 h [4, 6]: 957 ng/mL | concentration at 8 h [4, 7]: 1460 ng/mL | concentration at 8 h [4, 8]: 3570 ng/mL | concentration at 24 h ([4]; read-out: Concentration Mean): 382 ng/mL | concentration at 24 h [4, 6]: 266 ng/mL | concentration at 24 h [4, 7]: 350 ng/mL | concentration at 24 h [4, 8]: 531 ng/mL | Concentration Mean ([4]; sampling time 0 hr): BQL | Concentration Mouse#1 ([4]; sampling time 0 hr): BQL | Concentration Mouse#2 ([4]; sampling time 0 hr): BQL | Concentration Mouse#3 ([4]; sampling time 0 hr): BQL | reduction of H3K27 trimethylation [5]: can reduce the H3K27 trimethylation at much lower dose compared to known DOT1L inhibitors EPZ004777 (structure shown below) and CC001
